Data reported in patent US8920832B2, “Composition for nucleic acid transfection” (Hokkaido System Science Co., Ltd., priority 2006, dated 2014).

Legend:
HT1080 cells [1] = test: DNA (pCMV-SPORT-βgal) transfection into HT1080 cells: β-gal activity; type: cell-based
From the text: (§1) The procedure of Test Example 5 was repeated, except that HeLa cells were replaced with HT1080 cells.
(§2) The procedure of Test Example 7 was repeated, except that HeLa cells were replaced with HT1080 cells.

HeLa cells [2] = test: Viable cell counting (WST-1), cell survival rate, HeLa cells; type: cell-based
Description: (§3) Viable cell counting was carried out by means of a Cell Counting Kit (product of Dojindo Laboratories) based on WST-1 assay. […] Thereafter, absorbance was measured at 450 nm. A cell count vs. A450 standard curve was prepared on the basis of a separately prepared dilution series of different numbers of inoculated cells, and the number of viable cells was estimated by use of the standard curve.

HT1080 cells [3] = test: Viable cell counting (WST-1), cell survival rate, HT1080 cells; type: cell-based
Description: as §3, §1, §2

HeLa cells [4] = test: Cytotoxicity score under microscope after DNA transfection, HeLa cells; type: cell-based
Description: (§4) HeLa cells were inoculated into a 96-well plate (7,500 cells/100 μL/well), followed by culturing for about 24 hours. DNA (pCMV-SPORT-βgal) was diluted with a DMEM medium, to thereby prepare a DNA-diluted solution having a DNA concentration of 8 μg/mL (for the case of 200 ng/well). […] The thus-obtained solution or Lipofectamine 2000 as a positive control (product of Invitrogen) was diluted with a DMEM medium so that the amount of the reconstituted liposome solution or Lipofectamine 2000 added to cells was “Amount of liposomes added (μL/well)” shown in Table 9 or 10. Immediately after dilution, the DNA-diluted solution (25 μL) was added to and mixed with the liposome-diluted solution (25 μL), and the mixture was allowed to stand still at room temperature for 30 minutes, to thereby form a DNA/liposome complex. The DNA/liposome complex (50 μL) was added to the inoculated HeLa cells (about 70 to about 90% confluent), to thereby initiate transfection. After culturing at 37° C. and 5% CO2 for one hour, a 10% FBS/DMEM medium (100 μL) was added to the culture liquid, followed by culturing at 37° C. and 5% CO2 for about 21 hours.
(§5) Each of the enhancers shown in Table 13 was diluted with a DMEM medium to different concentrations so that the amount of the enhancer finally added to cells was “Enhancer amount (μg/well)” shown in Table 13. […] The thus-diluted liposome solution was added to an equiamount of the above-diluted enhancer, followed by incubation at room temperature for 20 minutes. […] Subsequently, cytotoxicity was evaluated according to the aforementioned scores, and determination of β-gal activity, quantitative determination of protein, and viable cell counting were carried out.

HT1080 cells [5] = test: Cytotoxicity score under microscope after DNA transfection, HT1080 cells; type: cell-based; design: scale not given here
From the text: as §1, §2

HeLa cells [6] = test: DNA (pCMV-SPORT-βgal) transfection into HeLa cells: β-gal activity; details: for β-gal activity: HeLa
Description: as §4
The culture supernatant was removed, and the cells were washed with PBS(−). Thereafter, determination of β-galactosidase (hereinafter may be abbreviated as “β-gal”) activity, quantitative determination of protein, and viable cell counting were carried out as described below.
After complete removal of PBS through suction, a lysis buffer (30 μL) was added to the cells, and the mixture was stirred and then allowed to stand still at −80° C. for 30 minutes or longer for freezing. After rapid thawing in a water bath at 37° C., the mixture was again allowed to stand still at −80° C. for 30 minutes or longer for freezing, followed by rapid thawing in a water bath at 37° C. Thereafter, centrifugation was carried out (2,000 g×10 minutes), and the resultant supernatant (sample) (10 μL) was added to a 96-well microplate.
Determination of β-gal activity was carried out by means of a β-gal assay kit (product of Invitrogen). […] A 2-Me-containing cleavage buffer was added (50 μL/well) to the sample or each of the standard-diluted solutions (10 μL), and 4 mg/mL aqueous ONPG solution was added (17 μL/well), followed by incubation at 37° C. for 30 minutes. After completion of incubation, a stop buffer was added (120 μL/well) for termination of reaction, and absorbance was measured at 405 nm.
as §5

[7] = Formulation Example 4 0.38 μL/well, enhancer 0.625 μg/well
[8] = Formulation Example 4 0.38 μL/well, enhancer 1.25 μg/well
[9] = Formulation Example 4 0.38 μL/well, enhancer 2.5 μg/well
[10] = Formulation Example 4 0.38 μL/well, enhancer 5 μg/well
[11] = Formulation Example 4 0.38 μL/well, enhancer 10 μg/well
[12] = Formulation Example 4 0.75 μL/well, enhancer 0.625 μg/well
[13] = Formulation Example 4 0.75 μL/well, enhancer 1.25 μg/well
[14] = Formulation Example 4 0.75 μL/well, enhancer 2.5 μg/well
[15] = Formulation Example 4 0.75 μL/well, enhancer 5 μg/well
[16] = Formulation Example 4 0.75 μL/well, enhancer 10 μg/well
[17] = Formulation Example 4 0.38 μL/well, enhancer 20 μg/well
[18] = Formulation Example 4 0.38 μL/well, enhancer 40 μg/well

## poly L-lysine
HT1080 cells [1]; [7]
  β-gal activity: 76.7 mU/well
HT1080 cells [1]; [8]
  β-gal activity: 49.5 mU/well
HT1080 cells [1]; [9]
  β-gal activity: 25.7 mU/well
HT1080 cells [1]; [10]
  β-gal activity: 12.2 mU/well
HT1080 cells [1]; [11]
  β-gal activity: 8.8 mU/well
HT1080 cells [1]; [12]
  β-gal activity: 98.0 mU/well
HT1080 cells [1]; [13]
  β-gal activity: 93.8 mU/well
HT1080 cells [1]; [14]
  β-gal activity: 59.2 mU/well
HT1080 cells [1]; [15]
  β-gal activity: 42.7 mU/well
HT1080 cells [1]; [16]
  β-gal activity: 25.3 mU/well
HeLa cells [2]; [7]
  Cell survival rate: 62%
HeLa cells [2]; [8]
  Cell survival rate: 71%
HeLa cells [2]; [9]
  Cell survival rate: 70%
HeLa cells [2]; [10]
  Cell survival rate: 70%
HeLa cells [2]; [11]
  Cell survival rate: 76%
HeLa cells [2]; [12]
  Cell survival rate: 73%
HeLa cells [2]; [13]
  Cell survival rate: 94%
HeLa cells [2]; [14]
  Cell survival rate: 99%
HeLa cells [2]; [15]
  Cell survival rate: 97%
HeLa cells [2]; [16]
  Cell survival rate: 99%
HT1080 cells [3]; [7]
  Cell survival rate: 53%
HT1080 cells [3]; [8]
  Cell survival rate: 72%
HT1080 cells [3]; [9]
  Cell survival rate: 78%
HT1080 cells [3]; [10]
  Cell survival rate: 65%
HT1080 cells [3]; [11]
  Cell survival rate: 80%
HT1080 cells [3]; [12]
  Cell survival rate: 62%
HT1080 cells [3]; [13]
  Cell survival rate: 75%
HT1080 cells [3]; [14]
  Cell survival rate: 82%
HT1080 cells [3]; [15]
  Cell survival rate: 86%
HT1080 cells [3]; [16]
  Cell survival rate: 82%
HeLa cells [4]; [7]
  Cytotoxicity score: 0.5
HeLa cells [4]; [8]
  Cytotoxicity score: 0.0
HeLa cells [4]; [9]
  Cytotoxicity score: 0.0
HeLa cells [4]; [10]
  Cytotoxicity score: 0.5
HeLa cells [4]; [11]
  Cytotoxicity score: 0.5
HeLa cells [4]; [12]
  Cytotoxicity score: 1.0
HeLa cells [4]; [13]
  Cytotoxicity score: 0.5
HeLa cells [4]; [14]
  Cytotoxicity score: 0.0
HeLa cells [4]; [15]
  Cytotoxicity score: 0.0
HeLa cells [4]; [16]
  Cytotoxicity score: 0.5
HT1080 cells [5]; [7]
  Cytotoxicity score: 2.0
HT1080 cells [5]; [8]
  Cytotoxicity score: 2.0
HT1080 cells [5]; [9]
  Cytotoxicity score: 1.0
HT1080 cells [5]; [10]
  Cytotoxicity score: 0.5
HT1080 cells [5]; [11]
  Cytotoxicity score: 1.0
HT1080 cells [5]; [12]
  Cytotoxicity score: 2.5
HT1080 cells [5]; [13]
  Cytotoxicity score: 2.0
HT1080 cells [5]; [14]
  Cytotoxicity score: 1.5
HT1080 cells [5]; [15]
  Cytotoxicity score: 0.5
HT1080 cells [5]; [16]
  Cytotoxicity score: 1.0
HeLa cells [6]; [7]
  β-gal activity: 23.9 mU/well
HeLa cells [6]; [8]
  β-gal activity: 3.4 mU/well
HeLa cells [6]; [9]
  β-gal activity: 0.6 mU/well
HeLa cells [6]; [10]
  β-gal activity: 0.6 mU/well
HeLa cells [6]; [11]
  β-gal activity: 0.1 mU/well
HeLa cells [6]; [12]
  β-gal activity: 54.1 mU/well
HeLa cells [6]; [13]
  β-gal activity: 6.6 mU/well
HeLa cells [6]; [14]
  β-gal activity: 1.5 mU/well
HeLa cells [6]; [15]
  β-gal activity: 0.7 mU/well
HeLa cells [6]; [16]
  β-gal activity: 0.2 mU/well

## CCCC(=O)[O-].[Na+] [sodium butyrate]
HT1080 cells [1]; [9]
  β-gal activity: 45.0 mU/well
HT1080 cells [1]; [10]
  β-gal activity: 40.2 mU/well
HT1080 cells [1]; [11]
  β-gal activity: 37.3 mU/well
HT1080 cells [1]; [17]
  β-gal activity: 40.3 mU/well
HT1080 cells [1]; [18]
  β-gal activity: 45.6 mU/well
HeLa cells [2]; [9]
  Cell survival rate: 67%
HeLa cells [2]; [10]
  Cell survival rate: 73%
HeLa cells [2]; [11]
  Cell survival rate: 65%
HeLa cells [2]; [17]
  Cell survival rate: 66%
HeLa cells [2]; [18]
  Cell survival rate: 68%
HT1080 cells [3]; [9]
  Cell survival rate: 55%
HT1080 cells [3]; [10]
  Cell survival rate: 50%
HT1080 cells [3]; [11]
  Cell survival rate: 53%
HT1080 cells [3]; [17]
  Cell survival rate: 52%
HT1080 cells [3]; [18]
  Cell survival rate: 62%
HeLa cells [4]; [9]
  Cytotoxicity score: 1.5
HeLa cells [4]; [10]
  Cytotoxicity score: 1.0
HeLa cells [4]; [11]
  Cytotoxicity score: 1.0
HeLa cells [4]; [17]
  Cytotoxicity score: 1.5
HeLa cells [4]; [18]
  Cytotoxicity score: 2.0
HT1080 cells [5]; [9]
  Cytotoxicity score: 1.5
HT1080 cells [5]; [10]
  Cytotoxicity score: 1.5
HT1080 cells [5]; [11]
  Cytotoxicity score: 2.0
HT1080 cells [5]; [17]
  Cytotoxicity score: 2.5
HT1080 cells [5]; [18]
  Cytotoxicity score: 3.0
HeLa cells [6]; [9]
  β-gal activity: 20.4 mU/well
HeLa cells [6]; [10]
  β-gal activity: 19.8 mU/well
HeLa cells [6]; [11]
  β-gal activity: 18.7 mU/well
HeLa cells [6]; [17]
  β-gal activity: 20.9 mU/well
HeLa cells [6]; [18]
  β-gal activity: 26.7 mU/well
HeLa cells [6]; enhancer added to liposome solution of Formulation Example 4, summary of Tables 13 and 14 (HeLa and HT1080)
  effect of enhancer on nucleic-acid-transfecting performance and cytotoxicity, in words: excellent effects
